A short description of this data set: Human HepG2 cell viability assay in 384 well format. It counts as toxicity, cell-based. Set-up: dose 125 nL, time 70.5 hour; concentration not given beside the values. The note with it: HepG2 cells, read-out: Inhibition.
For the compound `CCS(=O)(=O)N1CC[C@@H]2[C@H](CC1)N(Cc1cccnc1)CCS2(=O)=O`, the cytotoxicity at 70.5 h is -4.2%.

Turning to `COCC1CCN(S(=O)(=O)c2ccc(C(=O)NCC(F)F)cc2)C1` (stereo not given), the cytotoxicity at 70.5 h came to 9.26%.

For the compound `CCOC(=O)Cn1cnc2nc3n(c2c1=O)CCC3`, the cytotoxicity at 70.5 h is -2.23%.

As to `CC(C)Oc1ccc(C(O)CNCc2ccccc2C(F)(F)F)cc1` (stereo not given), the cytotoxicity at 70.5 h is -6.08%.

Regarding `COc1ccc([C@@H]2CN(c3cc(C(=O)O)ccn3)C[C@H]2N(C)C)cc1`, the cytotoxicity at 70.5 h worked out at 25.7%.

Take `CCN(Cc1nccs1)Cc1cc(Cl)ccc1OC`: the cytotoxicity at 70.5 h was determined as 2.82%.

Turning to `O=C(c1cc(COc2ccc3c(c2)OCO3)[nH]n1)N1CCSCC1`, the cytotoxicity at 70.5 h is -0.532%.

In the case of `CC(C)NC(=O)c1cc2c(s1)CCN2c1ncccn1`, the cytotoxicity at 70.5 h was 3.85%.

`CCn1cc(N2Cc3nc(N4CCC(C)CC4)ncc3C2=O)cn1`: the cytotoxicity at 70.5 h was -8.76%.

For `CC(C)(C)c1nc(CNc2cc3c(cc2Cl)NC(=O)CO3)no1`, the cytotoxicity at 70.5 h is -7.93%.

Turning to `Cc1ccc(CN2CC(C(=O)Nc3ccccc3)C3(CCOCC3)C2)s1` (stereo not given), the cytotoxicity at 70.5 h is -13.1%.

In the case of `Cc1ccc(C)c(C(=O)N2CCN(C(=O)Cc3ccccn3)CC2)c1`, the cytotoxicity at 70.5 h was -8.87%.

With `COCCC(=O)N1CCCC2(CCC(=O)N(CCc3c[nH]cn3)C2)C1` (stereo not given), the cytotoxicity at 70.5 h was -5.35%.

For `CCN1CC(C(=O)NCc2nn(CC)c3ccccc23)CCC1=O` (stereo not given), the cytotoxicity at 70.5 h amounted to 10.8%.

As to `CC(O)CN1CCC(=O)N(Cc2ccccc2)Cc2ccccc21` (stereo not given), the cytotoxicity at 70.5 h is 21.2%.

For the compound `COc1cc(C(C)=O)ccc1OC12CCCN(CC1)C2` (stereo not given), the cytotoxicity at 70.5 h stood at 12.8%.

Turning to `Cn1nnc2c1C(COCC1CC1)CN(C(=O)C1=CCCC1)C2` (stereo not given), the cytotoxicity at 70.5 h is -9.91%.

Regarding `CCN(CC(=O)NC)S(=O)(=O)N1CCCCCC1`, the cytotoxicity at 70.5 h is -10.4%.

In the case of `CC(c1ccc(F)c(F)c1)N1CCN(Cc2nccn2C)CC1` (stereo not given), the cytotoxicity at 70.5 h is 47.8%.

For the compound `CN1CCC2(CCC1=O)CCN(C(=O)Cc1ccc(O)c(F)c1)CC2`, the cytotoxicity at 70.5 h was 2.31%.

With `COc1cccc(OC)c1CC(=O)NC(C#N)c1ccsc1` (stereo not given), the cytotoxicity at 70.5 h is -12.5%.

For `CCN(CC)c1ccc(C(=O)N2CCCC(n3cncn3)C2)cn1` (stereo not given), the cytotoxicity at 70.5 h is -4.12%.

Regarding `CCCn1cnnc1CN(C)C(=O)C1CCCN(C2CCN(C)CC2)C1` (stereo not given), the cytotoxicity at 70.5 h was -9.33%.

As to `Cc1nn(C)c(C)c1NC(=O)CCn1ncc2c(C)cccc21`, the cytotoxicity at 70.5 h is -5.31%.

In the case of `O=c1[nH]c(CN2CCN(CC(F)(F)F)CC2)nc2ccccc12`, the cytotoxicity at 70.5 h is -13.3%.

As to `COc1cccc(CN2CCCCCC2c2cccc(F)c2)c1O` (stereo not given), the cytotoxicity at 70.5 h is -1.29%.

Regarding `C=C(C)CN(CC)C(=O)c1cc(F)ccc1NS(C)(=O)=O`, the cytotoxicity at 70.5 h is -0.0565%.

For `Cc1nnc(CCNC(=O)c2coc(CN3CCOCC3)c2)s1`, the cytotoxicity at 70.5 h amounted to 1.37%.

As for `CC(C)(C)c1cn(C[C@H]2CC3CCN2C[C@@H]3C(=O)N2CCOCC2)nn1` (stereo not given in full), the cytotoxicity at 70.5 h worked out at 2.28%.

On to `COc1ccc(N2CCN(C(=O)Cn3nccc3C)CC2(C)C)cc1`, for which the cytotoxicity at 70.5 h is -0.615%.

Turning to `Cc1ccc(C)c(NC(=O)N2C[C@H](N(C)C)C[C@H]2CO)c1`, the cytotoxicity at 70.5 h is -6.76%.

With `O=C1COc2cc(C(=O)NS(=O)(=O)c3ccc(F)cc3)ccc2N1`, the cytotoxicity at 70.5 h was -17.6%.

On to `COCCC1(C(=O)O)CCCN(C(=O)c2cc(Cl)ccc2F)C1` (stereo not given), for which the cytotoxicity at 70.5 h is -5.3%.

With `Cn1cccc1C(=O)N1C[C@@H]2CCCO[C@@H]2[C@H](N2CCOCC2)C1`, the cytotoxicity at 70.5 h came out at 0.647%.

`Cc1noc(C)c1CCCNC(=O)Nc1ccc2c(c1)COC2`: the cytotoxicity at 70.5 h turned out to be 7.04%.

In the case of `O=C1[C@H]2CN(Cc3ccoc3)C[C@@H]2CCN1Cc1cccnc1`, the cytotoxicity at 70.5 h was -8.89%.

Regarding `CC(O)CN1CCN(C(=O)c2ccc3c(c2)COC3)CC1` (stereo not given), the cytotoxicity at 70.5 h is 22.6%.

`COCCN1CCC(NC(=O)NCC2(c3ccccc3)CC2)C1` (stereo not given): the cytotoxicity at 70.5 h is -9.2%.

`Cc1nn(C)c(C)c1CCC(=O)Nc1cn(C)c(=O)n(C)c1=O`: the cytotoxicity at 70.5 h is -1.93%.

As for `CO[C@H]1CCN(C(=O)c2ccc3[nH]nnc3c2)C[C@@]12CCCO2`, the cytotoxicity at 70.5 h is -6.86%.

Consider `Cc1nc(Nc2cnccn2)cc(C2CCN(c3ncccn3)C2)n1` (stereo not given), for which the cytotoxicity at 70.5 h was -12.7%.

`NC1(C(=O)NCC2CCCN(Cc3cccc4nonc34)C2)CCC1` (stereo not given): the cytotoxicity at 70.5 h is -3.66%.

Turning to `CCn1c(O)c(C(C)=O)c2cc(C)ccc21`, the cytotoxicity at 70.5 h was -6.19%.

For the compound `CCC(CC)NCC(C)Oc1cccnc1` (stereo not given), the cytotoxicity at 70.5 h was -2.86%.

As for `Cn1nccc1-c1ncc(-c2cc(C(=O)O)n(CC3CC3)c2)cn1`, the cytotoxicity at 70.5 h is 6.58%.

As for `CCC(CC)CN1CCCn2nc(CNC(=O)COC)cc2C1`, the cytotoxicity at 70.5 h was -10.4%.

Take `CC1(C)[C@H]2CC=C(CN3CCCn4nc(C(=O)NCCO)cc4C3)[C@@H]1C2`: the cytotoxicity at 70.5 h is -4.77%.

On to `CCC1(CC)C(=O)NC(=O)N/C1=N/c1cccc(OC)c1`, for which the cytotoxicity at 70.5 h was found to be 26.5%.

As to `Cc1nc(-c2ccsc2)ccc1C(=O)NCC(C)N1CCOCC1` (stereo not given), the cytotoxicity at 70.5 h was -4.37%.

In the case of `CCC(C)NC(=O)c1ccccc1-n1cnnn1` (stereo not given), the cytotoxicity at 70.5 h was -11.4%.

Regarding `CS(=O)(=O)N1CC2(CCN(CC3CCCCC3)CC2)Cc2ccccc21`, the cytotoxicity at 70.5 h was 29.9%.

With `Cc1ccc(NC2CCN(C(=O)c3cccnc3N(C)C)CC2)nn1`, the cytotoxicity at 70.5 h stood at 0.412%.

For `O=C1NC2(Cc3ccccc31)CN(CC1CCOCC1)C2`, the cytotoxicity at 70.5 h was determined as 25.2%.

Take `CCN(CC1CCOC1)C(=O)c1ccccc1S(C)(=O)=O` (stereo not given): the cytotoxicity at 70.5 h is -4.17%.

`CC(C)C(C)NC(=O)Nc1cccc(OCC#N)c1` (stereo not given): the cytotoxicity at 70.5 h was -8.7%.

In the case of `Cn1cc(CN2CCCCC2c2ccc(-c3cccc(F)c3)nc2)cn1` (stereo not given), the cytotoxicity at 70.5 h was -1.71%.

With `CN(Cc1ccccn1)CC1CCCN1c1cccnn1` (stereo not given), the cytotoxicity at 70.5 h was -5.71%.

Consider `O=C(CCc1nc2cccnc2[nH]1)Nc1cccnc1`, for which the cytotoxicity at 70.5 h is -16.2%.

As to `Cc1cc(C)n(CC(C)CNC(=O)CCc2ccco2)n1` (stereo not given), the cytotoxicity at 70.5 h was -6.24%.

Take `Cc1nnn2c1COC(CNCc1ccncc1)C2` (stereo not given): the cytotoxicity at 70.5 h is -15.7%.

As for `O=C(c1ccnn1COc1ccc(Cl)cc1)N1CCSCC1`, the cytotoxicity at 70.5 h was -11%.

Consider `Cc1nnc([C@@]23CCO[C@@H]2CCN(Cc2scnc2C)C3)o1`, for which the cytotoxicity at 70.5 h is -10.2%.

On to `COCC1CC2(CCN(CC3CC3)CC2)CN1Cc1csc(C)n1` (stereo not given), for which the cytotoxicity at 70.5 h was -5.11%.

With `CCC[C@@H]1CN(C(=O)c2cc3ccccc3cc2O)C[C@H]1N(C)C`, the cytotoxicity at 70.5 h was 28.4%.

On to `CC(C)NC(=O)CCNC(=O)Nc1cnn(-c2ccccc2F)c1`, for which the cytotoxicity at 70.5 h was -0.437%.

Take `c1nc2c(c(C3CC3)n1)CCN(Cc1ccoc1)CC2`: the cytotoxicity at 70.5 h amounted to 18.1%.

Turning to `Cc1nc2c(N3CCN(Cc4ccccc4)CC3)nc(N)nc2n1C`, the cytotoxicity at 70.5 h stood at 0.226%.

Turning to `CCN(C(=O)CCOC)C(c1ccc(Cl)cc1)c1ccccn1` (stereo not given), the cytotoxicity at 70.5 h is -6.55%.

On to `O=C(NCC(F)(F)F)NC1CCCc2c1cnn2CCO` (stereo not given), for which the cytotoxicity at 70.5 h is -8.96%.

Consider `CCOC(=O)N1CCC(C(=O)c2cc(F)ccc2F)CC1`, for which the cytotoxicity at 70.5 h is -8.51%.

Consider `O=C(Nc1ccnc2ccnn12)c1ccc(NC2CC2)nc1`, for which the cytotoxicity at 70.5 h is -1.35%.

In the case of `CCc1noc(CN(CC(=O)N2CCCCC2)c2cccc(C)c2)n1`, the cytotoxicity at 70.5 h is -3.01%.

As for `Cc1ccc(NC(=O)c2cccc(N(C)C)c2)nc1`, the cytotoxicity at 70.5 h was -8.66%.

In the case of `NC(=O)CN1CCCC(C(=O)N2CCC(Oc3ncccn3)CC2)C1` (stereo not given), the cytotoxicity at 70.5 h is -2.67%.

Turning to `Cn1c(CCNc2nccnc2C#N)nc2ccc(F)cc21`, the cytotoxicity at 70.5 h was determined as 2.09%.

Consider `Cc1ccccc1OC1CCN(C(=O)c2c[nH]c(=O)[nH]c2=O)CC1`, for which the cytotoxicity at 70.5 h was -0.618%.

Consider `COc1cc(N2CCC(c3nccn3Cc3ccccn3)CC2)ncn1`, for which the cytotoxicity at 70.5 h is -4.99%.

With `O=C(c1cnc(O)cn1)N1CCC(CN2CCOCC2)CC1`, the cytotoxicity at 70.5 h was -13.8%.

On to `Cc1nc(CN2CCCN(CCOc3cccc(C#N)c3)CC2)no1`, for which the cytotoxicity at 70.5 h stood at 38.4%.

Regarding `CC(C)(C)NC(=O)C1CSCN1C(=O)CCc1ccco1` (stereo not given), the cytotoxicity at 70.5 h is -0.786%.

For the compound `C[C@@H]1CN(C(=O)c2nc3sccn3c2-c2ncc[nH]2)C[C@H](C)O1`, the cytotoxicity at 70.5 h is -7.22%.

In the case of `CCc1cnc(NCC(c2ccncc2)N2CCOCC2)nc1` (stereo not given), the cytotoxicity at 70.5 h is -6.68%.

With `CNC(=O)[C@@]12CCC3(CCN(C(C)=O)CC3)[C@@H]1CN(S(C)(=O)=O)C2`, the cytotoxicity at 70.5 h is -4.49%.

Consider `CC(NC(=O)NCCCNS(C)(=O)=O)c1ccncc1` (stereo not given), for which the cytotoxicity at 70.5 h amounted to 1.41%.

In the case of `Cc1ccccc1CCNC(=O)N1CCCC(c2nncn2C)C1` (stereo not given), the cytotoxicity at 70.5 h was -9.14%.

Regarding `CC(=O)N1CCCC1c1nccnc1Nc1cccc(C)n1` (stereo not given), the cytotoxicity at 70.5 h was -16.6%.

As to `CC(C)n1cc(CN2CCCN(C(=O)COC3CCCC3)CC2)cn1`, the cytotoxicity at 70.5 h stood at 1.39%.

For `CCC(C)S(=O)(=O)N1CCc2nc(C3CCNCC3)ncc2C1` (stereo not given), the cytotoxicity at 70.5 h is -0.105%.

For `CC(C)(C)c1noc(CN2CCCCC2Cn2cncn2)n1` (stereo not given), the cytotoxicity at 70.5 h was -0.0275%.

Regarding `CCC(C)NC(=O)Nc1ccc(CN2CCOC2=O)cc1` (stereo not given), the cytotoxicity at 70.5 h was determined as 18.8%.

Take `Cc1cc2nc(SCC(=O)N3CCCC3)n(C)c(=O)c2[nH]1`: the cytotoxicity at 70.5 h is -3.73%.

For `O=C(Cc1ccccc1)N1CCN(CC(O)c2ccc(F)cc2)CC1` (stereo not given), the cytotoxicity at 70.5 h is -4.03%.

On to `CCCN(CC(F)(F)F)S(=O)(=O)c1cc(C(N)=O)n(C)c1`, for which the cytotoxicity at 70.5 h is -8.17%.

Consider `CCN1CCc2[nH]cnc2C12CCN(Cc1ccc3nsnc3c1)CC2`, for which the cytotoxicity at 70.5 h is -5.41%.

As for `O=C(NCc1cnn2ccccc12)NC1CCCC1`, the cytotoxicity at 70.5 h is -15.5%.

Turning to `O=C(Nc1cc(-c2cccnc2)no1)C1CCCCC1`, the cytotoxicity at 70.5 h is -4.13%.

Take `Cc1cncc(C2CCN(Cc3cccn3C)CC2)n1`: the cytotoxicity at 70.5 h was determined as 11.8%.

Take `CN1C(=O)CC(c2ccccc2)C12CCN(CC1CCOCC1)CC2` (stereo not given): the cytotoxicity at 70.5 h is -6.6%.

Turning to `c1ccc(CN2CCC(Cc3noc(C4CC4)n3)CC2)cc1`, the cytotoxicity at 70.5 h was -5.84%.

On to `Cc1cccc(-c2nc(CN3CCOCS3(=O)=O)c(C)o2)c1`, for which the cytotoxicity at 70.5 h is -6.34%.

The record behind these values is ChEMBL document CHEMBL3507680, “University of Dundee, Gates Library screen for HepG2 cell viability”.
